According to ChEMBL document CHEMBL1201862, “PubChem BioAssay data set” (2004):
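These data come from cells grown in 96-well plates and exposed to compound for 48 hours at five concentrations. Abbreviation: GI50, concentration required for 50% inhibition of growth.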 The source made the active and inactive calls. Rule as the data show it: active = GI50 up to about 1.1 µM and inactive = higher.

Assays:
Experiment in all cases: NCI anticancer screen, dose series, 48 h
[1] = test system: HCT-116
[2] = test system: UACC-62
[3] = test system: U-251
[4] = test system: NCI-H23
[5] = test system: SF-268
[6] = test system: SNB-75
[7] = test system: SR
[8] = test system: RPMI-8226
[9] = test system: SF-295
[10] = test system: SNB-19
[11] = test system: TK-10
[12] = test system: K562
[13] = test system: LOX IMVI
[14] = test system: DMS-114
[15] = test system: 786-0
[16] = test system: CAKI-1
[17] = test system: MDA-N
[18] = test system: PC-3
[19] = test system: BT-549
[20] = test system: DU-145

Measured: GI50

COc1ccc([C@H]2c3cc4c(cc3OC(O)(CO)[C@H]2C(=O)O)OCO4)c(OC)c1.COc1ccc([C@H]2c3cc4c(cc3OC3(O)COC(=O)[C@@H]23)OCO4)c(OC)c1 (stereo partly drawn)
inactive: [1] > 100 µM | [2] 41.5 µM | [3] 41.9 µM | [4] > 100 µM | [5] > 100 µM | [6] 43.5 µM | [7] 56 µM | [8] 41.9 µM | [9] > 100 µM | [10] > 100 µM | [11] > 100 µM | [12] 71.1 µM | [13] 95.5 µM | [14] > 100 µM

OC1=CN=C(c2ccccc2)Oc2ccccc21
inactive: [1] 45.4 µM | [2] > 100 µM | [3] > 100 µM | [4] > 100 µM | [5] 41.4 µM | [6] 30.7 µM | [8] > 100 µM | [9] 32 µM | [10] 42.5 µM | [11] > 100 µM | [15] 46.7 µM | [12] > 100 µM | [13] > 100 µM | [14] > 100 µM

Cc1ccc(NC(=O)CSc2nnc(-c3ccc(/N=C\c4ccc(Cl)cc4)cc3)o2)cc1
inactive: [1] > 100 µM | [2] > 100 µM | [3] > 100 µM | [4] > 100 µM | [5] > 100 µM | [6] 72.8 µM | [7] > 100 µM | [8] > 100 µM | [9] > 100 µM | [10] > 100 µM | [11] > 100 µM | [15] > 100 µM | [12] > 100 µM | [13] > 100 µM | [14] > 100 µM

O=S(=O)(C1=CC(S(=O)(=O)c2ccccc2)CN(Cc2ccccc2)C1c1cccc2ccccc12)c1ccccc1 (stereo not drawn)
inactive: [1] > 69 µM | [2] > 69 µM | [3] > 69 µM | [4] > 69 µM | [5] > 69 µM | [6] > 69 µM | [8] > 69 µM | [9] > 69 µM | [10] > 69 µM | [11] > 69 µM | [16] 20.7 µM | [15] > 69 µM | [12] > 69 µM | [13] > 69 µM | [14] > 69 µM

N/C(=N\O)N/N=C\c1ccc(O)c(O)c1O
inactive: [1] 27.5 µM | [2] 17.3 µM | [3] > 52.8 µM | [4] 24.4 µM | [5] 60.1 µM | [6] 17.3 µM | [8] 41.5 µM | [9] 12.2 µM | [10] > 51.9 µM | [16] 29.4 µM | [12] 17.8 µM | [13] 16.3 µM | [14] 21.2 µM

N=C(N)NNC(=O)CCn1[nH]c(=O)c(Cl)c(Cl)c1=O
inactive: [2] > 100 µM | [3] > 100 µM | [4] > 100 µM | [5] > 100 µM | [6] > 100 µM | [8] > 100 µM | [9] > 100 µM | [10] > 100 µM | [11] > 100 µM | [16] > 100 µM | [15] > 100 µM | [12] > 100 µM | [13] > 100 µM | [14] > 100 µM

CC(O)C(N/C=C1/N=C(c2ccccc2)OC1=O)C(=O)O (stereo not drawn)
inactive: [1] > 100 µM | [2] > 100 µM | [3] > 100 µM | [4] > 100 µM | [5] > 100 µM | [6] > 100 µM | [8] > 100 µM | [9] > 100 µM | [10] > 100 µM | [11] > 100 µM | [16] > 100 µM | [15] > 100 µM | [12] > 100 µM | [13] > 100 µM | [14] > 100 µM

COC(=O)C(C)NP(=O)(N1CC1)N1CC1 (stereo not drawn)
inactive: [2] 61.8 µM | [3] > 100 µM | [4] 97.3 µM | [5] > 100 µM | [6] > 100 µM | [8] > 100 µM | [9] 92.5 µM | [10] > 100 µM | [11] > 100 µM | [16] > 100 µM | [12] > 100 µM | [13] 80 µM | [14] 66.4 µM

CCOC(=O)c1nc(C)oc1C(F)(F)F
inactive: [1] > 100 µM | [2] > 100 µM | [3] > 100 µM | [4] > 100 µM | [5] > 100 µM | [6] > 100 µM | [7] > 100 µM | [9] > 100 µM | [10] > 100 µM | [11] > 100 µM | [16] > 100 µM | [15] > 100 µM | [12] > 100 µM | [13] > 100 µM | [14] > 100 µM

O=C1OC(c2ccccc2)=N/C1=C\c1ccc2ccccc2c1
inactive: [1] > 100 µM | [2] > 100 µM | [3] > 100 µM | [4] > 100 µM | [5] > 100 µM | [6] > 100 µM | [8] > 100 µM | [10] > 100 µM | [11] > 100 µM | [16] > 100 µM | [15] > 100 µM | [12] > 100 µM | [13] > 100 µM | [14] > 100 µM

O=C1[C@@H]2C(c3ccncc3)=NO[C@@H]2C(=O)N1c1ccc(Cc2ccc(N3C(=O)[C@H]4C(c5ccncc5)=NO[C@H]4C3=O)cc2)cc1
inactive: [2] > 100 µM | [3] > 100 µM | [4] > 100 µM | [5] > 100 µM | [6] > 100 µM | [8] > 100 µM | [9] > 100 µM | [11] > 100 µM | [16] > 100 µM | [15] > 100 µM | [12] > 100 µM | [13] > 100 µM | [14] > 100 µM

Cc1cccc(C)c1NC(=O)C(Cc1c[nH]c2ccccc12)NC(=O)OCc1ccccc1 (stereo not drawn)
inactive: [17] 15.7 µM | [18] 12.3 µM | [1] 23.9 µM | [2] 16.6 µM | [3] 19.5 µM | [4] 24 µM | [19] 24.8 µM | [20] 17 µM | [5] 18.7 µM | [6] 18.7 µM | [7] 22.5 µM | [8] 15.6 µM | [9] 17 µM | [10] 14.9 µM | [11] 19.2 µM | [16] 16.9 µM | [15] 20.1 µM | [12] 30.2 µM | [13] 19.5 µM

COc1ccc(NC(=O)CC(=O)N2N=C(C)C(/N=N\c3ccc(S(=O)(=O)c4ccc(/N=N/C5C(=O)N(C(=O)CC(=O)Nc6ccc(OC)cc6)N=C5C)cc4)cc3)C2=O)cc1 (stereo not drawn)
inactive: [17] > 100 µM | [18] > 100 µM | [1] > 100 µM | [2] > 100 µM | [3] > 100 µM | [4] > 100 µM | [19] > 100 µM | [20] > 100 µM | [5] 35.9 µM | [6] 24.9 µM | [7] > 100 µM | [8] > 100 µM | [9] > 100 µM | [10] > 100 µM | [11] > 100 µM | [16] > 100 µM | [15] > 100 µM | [12] 50 µM | [13] > 100 µM
